Experimental data: patent publication US5593970A, “Heterocyclic anthracycline analogs” (priority 1994, dated 1997)
Counter-ions that a name gives are not always drawn. Like-named read-outs stand apart in the source and are kept apart here.

Columns and labels:
Assay in all cases: Microculture tetrazolium assay
Type in all cases: cell-based
[1] = tested on: SKOV3; settings: Homo sapiens, SK-OV-3, SKOV3
[2] = tested on: SKVLB; settings: for VLB/OV3: IC50 ratio SKVLB/SKOV3; for IC50: SKVLB
[3] = tested on: T47D; settings: Homo sapiens
[4] = tested on: LOX
[5] = tested on: HT29; settings: Homo sapiens, HT-29, HT29

IC50 ([1]; read-out: IC50)	IC50 ([2]; read-out: IC50)	IC50 ([3]; read-out: IC50)	IC50 ([4]; read-out: IC50)	IC50 ([5]; read-out: IC50)	Structure (SMILES)	VLB/OV3 [2]	IC50 [5]	IC50 [1]	IC50 [2]	IC50 [3]	IC50 [4]
7.1 µM	14 µM	7.1 µM	5 µM	11 µM	CC(=O)C1CC2=C(C(=O)c3cc4ccccc4c(O)c3C2=O)C(OCCNC(=O)OC(C)(C)C)S1 (stereo not shown) [BCH-1627]	2.0					
12 µM	31 µM	18 µM	8.5 µM	66 µM	CC[C@@H]1CC2=C(C(=O)c3cc4ccccc4c(O)c3C2=O)[C@@H](O[C@H]2C[C@H](O)[C@H](O)[C@H](C)O2)O1 [BCH-1630]	2.6					
0.245 µM	0.47 µM	0.735 µM	0.201 µM	0.0995 µM	CC[C@H]1Cc2c(O)c3c(c(O)c2[C@H](O[C@H]2C[C@H](N)[C@H](O)[C@H](C)O2)O1)C(=O)c1ccccc1C3=O [BCH-1633]	1.92					
1.99 µM	3.18 µM	3.11 µM	1 µM	0.876 µM	CC(=O)C1CC2=C(C(=O)c3cc4ccccc4c(O)c3C2=O)C(O[C@H]2C[C@H](NC(=O)C(F)(F)F)[C@H](O)[C@H](C)O2)S1 (stereo partly shown) [BCH-1635]	1.60					
2.65 µM	4.52 µM	2.97 µM	1.23 µM	2.53 µM	CC(=O)C1CC2=C(C(=O)c3cc4ccccc4c(O)c3C2=O)C(OC[C@H]2COC(C)(C)O2)S1 (stereo partly shown) [BCH-1636]	1.71					
> 100 µM	> 100 µM	> 100 µM	> 100 µM	> 100 µM	CC(F)(F)C1CC2=C(CO1)C(=O)c1cc3ccccc3c(O)c1C2=O (stereo not shown) [BCH-1638, 3-(1',1'-difluoroethyl)-6 and 11-hydroxy-1,2,3,4-tetrahydro-(2-oxygen)-naphthacene-5,12-dione]						
> 100 µM	> 100 µM	> 100 µM	> 100 µM	> 100 µM	CC(F)(F)C1CC2=C(CO1)C(=O)c1c(cc3ccccc3c1O)C2=O (stereo not shown) [BCH-1639, 3-(1',1'-difluoroethyl)-6 and 11-hydroxy-1,2,3,4-tetrahydro-(2-oxygen)-naphthacene-5,12-dione]						
1.68 µM	2.74 µM	2 µM	1.35 µM	0.871 µM	CC(=O)[C@@H]1CC2=C(C(=O)c3cc4ccccc4c(O)c3C2=O)[C@@H](O[C@H]2C[C@H](NC(=O)C(F)(F)F)[C@H](O)[C@H](C)O2)S1 [BCH-1641]	1.63					
2.02 µM	3.83 µM	3.73 µM	1.37 µM	0.597 µM	CC(=O)C1CC2=C(C(=O)c3cc4ccccc4c(O)c3C2=O)C(OC[C@H](O)CO)S1 (stereo partly shown) [BCH-1645]	1.90					

More lines, now with the values behind:

Structure (SMILES)	IC50 ([1]; read-out: IC50)	IC50 ([2]; read-out: IC50)	IC50 ([3]; read-out: IC50)	IC50 ([4]; read-out: IC50)	IC50 ([5]; read-out: IC50)	VLB/OV3 [2]	IC50 [5]	IC50 [1]	IC50 [2]	IC50 [3]	IC50 [4]
CC(=O)O[C@@H]1[C@H](C)O[C@@H](O[C@@H]2O[C@@H](C(C)=O)CC3=C2C(=O)c2cc4ccccc4c(O)c2C3=O)C[C@@H]1OC(C)=O [BCH-1166, (1'S,1S,3R)-methyl-(6-hydroxy-1-(2',3',4',6'-tetradeoxy-3',4'-diacetyl-L-lyxohexopyranose)-5,12-dioxo-3,4,5,12-tetrahydroanthraceno-[2,3-c]pyran-3-yl) ketone]	24.4 µM	50.8 µM	31.4 µM	30.5 µM	12.5 µM	2.08					
CC(=O)C1CC2=C(C(=O)c3cc4ccccc4c(O)c3C2=O)C(O)S1 (stereo not drawn) [BCH-1167, Trans-3-aceto-1,6-hydroxy-1,2,3,4,5,12-hexahydro-2-(sulfur)naphthacene-5,12-dione and cis-3-aceto-1,6-hydroxy-1,2,3,4,5,12-hexahydro-2-(sulfur)naphthacene-5,12-dione]	> 100 µM	> 100 µM	> 100 µM	> 100 µM	> 100 µM						
C=CC1CC2=C(C(=O)c3cc4ccccc4c(O)c3C2=O)C(O[C@H]2C[C@H](NC(=O)C(F)(F)F)[C@H](O)[C@H](C)O2)O1 (stereo partly shown) [BCH-1168]	88 µM	94.2 µM	84.4 µM	100 µM	100 µM	1.07					
C[C@@H]1O[C@@H](O[C@H]2O[C@H](C(=O)CO)CC3=C2C(=O)c2cc4ccccc4c(O)c2C3=O)C[C@H](NC(=O)C(F)(F)F)[C@@H]1O [BCH-1175, (1', S,1R,3S)-1,2,3,4,5,12-hexahydro-6-hydroxy-3-hydroxy-aceto-1-N-trifluoroacetyl-L-daunosamine-(2-oxo) naphthacene-5, 12-dione]	> 100 µM	> 100 µM	> 100 µM	> 100 µM	> 100 µM						
CC(=O)OCC1([C@@H]2CC3=C(C(=O)c4c(cc5ccccc5c4OC(C)=O)C3=O)[C@@H](O[C@H]3C[C@H](NC(=O)C(F)(F)F)[C@H](O)[C@H](C)O3)O2)OCCCO1 [BCH-1178]	6.93 µM	12.8 µM	7.06 µM	12.3 µM		1.85	5.64 µM				
CC(=O)OCC1(C2CC3=C(C(=O)c4c(cc5ccccc5c4OC(C)=O)C3=O)C(O[C@H]3C[C@H](NC(=O)C(F)(F)F)[C@H](O)[C@H](C)O3)O2)OCCCO1 (stereo partly shown) [BCH-1179]	5.25 µM	8.31 µM	4.9 µM	10.9 µM	4.03 µM	1.58					
C[C@@H]1O[C@@H](O[C@@H]2O[C@@H](C(=O)CO)CC3=C2C(=O)c2cc4ccccc4c(O)c2C3=O)C[C@H](NC(=O)C(F)(F)F)[C@@H]1O [BCH-1182, (1 'S,1S,3R)-1,2,3,4,5,12-hexahydro-6-hydroxy-3-hydroxy-aceto-1-N-trifluoroacetyl-L-daunosamine-(2-oxo) naphthacene-5,12-dione]	23.6 µM	73.7 µM	28.3 µM	1.98 µM	25.4 µM	3.12					
C=CC1CC2=C(C(=O)c3cc4ccccc4c(O)c3C2=O)C(O[C@H]2C[C@H](N)[C@H](O)[C@H](C)O2)O1 (stereo partly shown) [BCH-1611]	1.89 µM	7.32 µM	2.16 µM	4.3 µM	2.81 µM	3.87					
CC[C@@H]1CC2=C(C(=O)c3cc4ccccc4c(O)c3C2=O)[C@@H](O[C@H]2C[C@H](N)[C@H](O)[C@H](C)O2)O1 [BCH-1614, (1'S,1R,3R)-5,12-dioxo-3-ethyl-6-hydroxy-1-(2',3',6'-trideoxy-3'-amino-4'-hydroxy-L-lyxohexopyranose)-3,4,5,12-tetrahydroanthraceno[2,3-c]pyran hydrochloride]						1.64	3.58 µM	1.02 µM	1.67 µM	0.742 µM	1.09 µM
CC(=O)[C@@H]1CC2=C(C(=O)c3cc4ccccc4c(O)c3C2=O)[C@@H](O[C@H]2C[C@H](NC(=O)C(F)(F)F)[C@H](I)[C@H](C)O2)O1 [BCH-1617]	2.15 µM	2.96 µM	2.43 µM	3.04 µM	1.2 µM	1.38					
CC(=O)[C@H]1CC2=C(C(=O)c3cc4ccccc4c(O)c3C2=O)[C@H](O[C@H]2C[C@H](NC(=O)C(F)(F)F)[C@H](I)[C@H](C)O2)O1 [BCH-1618]	3.26 µM	3.21 µM		3.75 µM	3.63 µM	.098				3.66 µM	
CC(=O)Nc1nc([C@@H]2CC3=C(C(=O)c4cc5ccccc5c(O)c4C3=O)[C@@H](O[C@H]3C[C@H](NC(=O)C(F)(F)F)[C@H](O)[C@H](C)O3)O2)cs1 [BCH-1623, (1'S,1R,3S)-6-hydroxy-1-(2',3',6'-trideoxy-3'-trifluoroacetamido-L-lyxohexopyranose)-3-(2-aza-3-acetamido-thienyl)-5,12-dioxo-3,4,5,12-tetrahydro-anthraceno-[2,3-c]-pyran]	49.5 µM	90.2 µM	42.8 µM	44.2 µM	32.1 µM	1.82					
CC(=O)[C@@H]1Cc2c(O)c3c(c(O)c2[C@@H](O[C@H]2C[C@H](O)[C@H](O)[C@H](C)O2)O1)C(=O)c1ccccc1C3=O [BCH-1624]	85 µM	100 µM	100 µM	100 µM	100 µM						
CC(=O)[C@H]1Cc2c(O)c3c(c(O)c2[C@H](O[C@H]2C[C@H](O)[C@H](O)[C@H](C)O2)O1)C(=O)c1ccccc1C3=O [BCH-1625]	5.1 µM	45 µM	34 µM	16 µM	61 µM	8.8					
CC(=O)O[C@@H]1[C@H](C)O[C@@H](OC2OC(C(=O)CO)CC3=C2C(=O)c2cc4ccccc4c(O)c2C3=O)C[C@@H]1OC(C)=O (stereo partly shown) [BCH-1626]	2.32 µM	7.66 µM	5.39 µM	2.99 µM	5.18 µM	3.30					
CC(=O)C1CC2=C(C(=O)c3cc4ccccc4c(O)c3C2=O)C(OCCN)S1 (stereo not shown) [BCH-1628]	2.71 µM		2.89 µM	3.52 µM	3.43 µM	2.18			5.92 µM		
CC[C@H]1CC2=C(C(=O)c3cc4ccccc4c(O)c3C2=O)[C@H](O[C@H]2C[C@H](O)[C@H](O)[C@H](C)O2)O1 [BCH-1629]	6.7 µM		9 µM	7.4 µM	22 µM	2.8			19 µM		
CC(=O)C1CC2=C(C(=O)c3cc4ccccc4c(O)c3C2=O)C(O[C@H]2C[C@H](NC(=O)C(F)(F)F)[C@@H](O)[C@H](C)O2)O1 (stereo partly shown) [BCH-1637]	2.28 µM	3.82 µM		2.07 µM	0.691 µM	1.68				5.24 µM	
C[C@@H]1O[C@@H](O[C@H]2OCCC3=C2C(=O)c2cc4ccccc4c(O)c2C3=O)C[C@H](NC(=O)C(F)(F)F)[C@@H]1O [BCH-1646]		6.56 µM	2.81 µM	2.96 µM		1.31	5.92 µM	4.99 µM			
